Measurements as given in PMC8231556, “Inhibiting Endothelial Cell Function in Normal and Tumor Angiogenesis Using BMP Type I Receptor Macrocyclic Kinase Inhibitors” (Cancers, 2021).

Assays:
Test in all cases: radiometric kinase profiling (33 PanQinase)
Format in all cases: biochemical
EPHB4 = molecular target: T1, EPHB4 (Homo sapiens, UniProt P54760); settings: read-out: Inhibitory effect (%) EPHB4
T1 construct: purchased ProQinase (33PanQinase Activity Assay)
T1 sequence (P54760 16-987): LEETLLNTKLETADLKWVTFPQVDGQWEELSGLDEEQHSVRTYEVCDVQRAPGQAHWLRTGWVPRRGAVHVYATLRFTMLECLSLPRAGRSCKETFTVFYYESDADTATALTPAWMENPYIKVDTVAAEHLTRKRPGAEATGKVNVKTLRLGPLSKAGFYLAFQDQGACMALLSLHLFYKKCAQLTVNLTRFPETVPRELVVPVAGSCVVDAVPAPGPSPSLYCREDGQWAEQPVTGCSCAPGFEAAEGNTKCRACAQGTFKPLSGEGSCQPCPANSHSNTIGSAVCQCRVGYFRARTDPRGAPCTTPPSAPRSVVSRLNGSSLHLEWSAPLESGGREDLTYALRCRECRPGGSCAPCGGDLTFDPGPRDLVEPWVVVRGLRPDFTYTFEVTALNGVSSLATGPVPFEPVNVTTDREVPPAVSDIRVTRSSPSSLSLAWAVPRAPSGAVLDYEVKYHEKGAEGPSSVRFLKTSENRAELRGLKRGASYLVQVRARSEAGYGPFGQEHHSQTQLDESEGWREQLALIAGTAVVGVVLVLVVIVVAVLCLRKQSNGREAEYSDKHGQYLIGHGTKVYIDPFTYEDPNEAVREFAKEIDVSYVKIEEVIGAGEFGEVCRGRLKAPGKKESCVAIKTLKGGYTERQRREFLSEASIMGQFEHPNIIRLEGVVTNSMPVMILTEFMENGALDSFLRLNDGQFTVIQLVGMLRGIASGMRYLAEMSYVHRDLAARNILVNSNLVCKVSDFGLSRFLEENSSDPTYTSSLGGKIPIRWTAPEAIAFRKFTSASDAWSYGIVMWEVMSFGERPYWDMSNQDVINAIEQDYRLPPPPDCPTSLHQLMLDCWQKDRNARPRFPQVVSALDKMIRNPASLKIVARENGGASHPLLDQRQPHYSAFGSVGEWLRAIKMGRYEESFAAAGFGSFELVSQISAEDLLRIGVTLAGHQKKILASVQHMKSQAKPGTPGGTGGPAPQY
How it was run: (§1)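 Enzyme/substrate mixes were incubated with [γ-33P]-ATP and compound (added as a 0.1 μM solution in 10% DMSO) at 30 °C for 60 min, then stopped with H3PO4 and washed with NaCl. 33P incorporation was scintillation-counted, and residual activity (%) was normalized to untreated control and background.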

CHEK2 = molecular target: T2, CHEK2 (Homo sapiens, UniProt O96017); settings: read-out: Inhibitory effect (%) CHEK2
T2 construct: purchased Proqinase, Germany
T2 sequence (O96017 whole entry): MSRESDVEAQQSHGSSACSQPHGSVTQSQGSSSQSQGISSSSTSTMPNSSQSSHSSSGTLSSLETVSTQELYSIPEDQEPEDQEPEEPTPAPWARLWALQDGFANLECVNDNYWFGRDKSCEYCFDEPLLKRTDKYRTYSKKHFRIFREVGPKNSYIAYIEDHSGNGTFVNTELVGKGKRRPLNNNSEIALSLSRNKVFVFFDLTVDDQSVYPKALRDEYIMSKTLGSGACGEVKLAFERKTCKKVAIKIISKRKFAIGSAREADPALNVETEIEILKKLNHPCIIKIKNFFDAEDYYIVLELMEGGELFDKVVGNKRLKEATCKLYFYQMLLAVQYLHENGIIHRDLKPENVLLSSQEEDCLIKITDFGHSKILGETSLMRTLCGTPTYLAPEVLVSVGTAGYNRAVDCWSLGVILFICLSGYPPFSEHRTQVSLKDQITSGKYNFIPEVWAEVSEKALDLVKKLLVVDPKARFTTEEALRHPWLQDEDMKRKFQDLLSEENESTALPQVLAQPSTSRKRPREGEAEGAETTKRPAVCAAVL
How it was run: as §1

MAPK9 = molecular target: T3, MAPK9 (Homo sapiens, UniProt P45984); settings: read-out: Inhibitory effect (%) MAPK9
T3 construct: purchased ProQinase (33PanQinase Activity Assay)
T3 sequence (P45984 whole entry): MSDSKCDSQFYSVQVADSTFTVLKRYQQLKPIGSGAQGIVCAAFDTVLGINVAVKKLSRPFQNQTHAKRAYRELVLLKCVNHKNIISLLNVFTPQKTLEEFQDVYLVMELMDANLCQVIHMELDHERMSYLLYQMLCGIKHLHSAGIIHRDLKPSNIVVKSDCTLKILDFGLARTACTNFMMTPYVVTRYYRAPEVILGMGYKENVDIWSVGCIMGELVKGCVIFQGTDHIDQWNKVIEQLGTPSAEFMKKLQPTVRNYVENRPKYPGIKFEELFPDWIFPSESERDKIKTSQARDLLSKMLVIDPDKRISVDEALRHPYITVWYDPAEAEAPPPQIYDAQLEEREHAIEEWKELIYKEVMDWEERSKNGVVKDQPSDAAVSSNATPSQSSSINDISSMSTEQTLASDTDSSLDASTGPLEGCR
How it was run: as §1

LIMK1 = molecular target: T4, LIMK1 (Homo sapiens, UniProt P53667); settings: read-out: Inhibitory effect (%) LIMK1
T4 construct: purchased ProQinase (33PanQinase Activity Assay)
T4 sequence (P53667 whole entry): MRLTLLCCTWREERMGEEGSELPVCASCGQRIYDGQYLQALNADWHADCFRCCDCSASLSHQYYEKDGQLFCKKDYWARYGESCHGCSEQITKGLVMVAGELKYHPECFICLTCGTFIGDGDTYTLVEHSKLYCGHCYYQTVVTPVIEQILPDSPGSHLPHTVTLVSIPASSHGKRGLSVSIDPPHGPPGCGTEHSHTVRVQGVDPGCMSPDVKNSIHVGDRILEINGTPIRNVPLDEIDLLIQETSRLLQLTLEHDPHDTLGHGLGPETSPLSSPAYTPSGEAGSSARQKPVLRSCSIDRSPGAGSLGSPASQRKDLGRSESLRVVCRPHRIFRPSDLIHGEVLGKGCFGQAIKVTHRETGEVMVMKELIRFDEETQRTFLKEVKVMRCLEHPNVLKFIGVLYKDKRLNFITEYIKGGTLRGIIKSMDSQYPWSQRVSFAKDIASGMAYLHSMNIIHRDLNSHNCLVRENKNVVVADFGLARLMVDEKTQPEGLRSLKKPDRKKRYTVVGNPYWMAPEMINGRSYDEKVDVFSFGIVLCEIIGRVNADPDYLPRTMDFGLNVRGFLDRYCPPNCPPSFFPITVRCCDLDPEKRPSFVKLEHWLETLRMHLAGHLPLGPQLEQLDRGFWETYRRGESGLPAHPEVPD
How it was run: as §1

IKBKB = molecular target: T5, IKBKB (Homo sapiens, UniProt O14920); settings: read-out: Inhibitory effect (%) IKBKB
T5 construct: purchased ProQinase (33PanQinase Activity Assay)
T5 sequence (O14920 1-756): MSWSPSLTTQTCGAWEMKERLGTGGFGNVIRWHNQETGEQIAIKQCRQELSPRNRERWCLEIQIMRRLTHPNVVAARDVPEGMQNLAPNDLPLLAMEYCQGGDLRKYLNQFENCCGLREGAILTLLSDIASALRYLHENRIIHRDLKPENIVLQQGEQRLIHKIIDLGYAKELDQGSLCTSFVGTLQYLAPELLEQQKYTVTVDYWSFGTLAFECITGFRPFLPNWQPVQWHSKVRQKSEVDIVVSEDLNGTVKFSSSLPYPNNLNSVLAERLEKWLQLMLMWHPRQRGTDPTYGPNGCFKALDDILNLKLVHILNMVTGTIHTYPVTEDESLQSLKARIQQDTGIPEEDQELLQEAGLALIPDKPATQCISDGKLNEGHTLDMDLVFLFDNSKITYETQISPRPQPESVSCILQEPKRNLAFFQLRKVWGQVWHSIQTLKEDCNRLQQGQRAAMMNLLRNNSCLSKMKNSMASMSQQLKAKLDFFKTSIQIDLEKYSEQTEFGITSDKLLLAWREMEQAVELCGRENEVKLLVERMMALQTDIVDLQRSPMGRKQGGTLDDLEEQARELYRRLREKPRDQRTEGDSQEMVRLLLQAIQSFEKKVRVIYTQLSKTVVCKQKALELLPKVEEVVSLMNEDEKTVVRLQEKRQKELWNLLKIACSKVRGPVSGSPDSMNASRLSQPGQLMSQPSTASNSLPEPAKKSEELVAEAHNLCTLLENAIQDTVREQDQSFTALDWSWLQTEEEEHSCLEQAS
How it was run: as §1

CAMK1D = molecular target: T6, CAMK1D (Homo sapiens, UniProt Q8IU85); settings: read-out: Inhibitory effect (%) CAMK1D
T6 construct: purchased Proqinase, Germany
T6 sequence (Q8IU85 whole entry): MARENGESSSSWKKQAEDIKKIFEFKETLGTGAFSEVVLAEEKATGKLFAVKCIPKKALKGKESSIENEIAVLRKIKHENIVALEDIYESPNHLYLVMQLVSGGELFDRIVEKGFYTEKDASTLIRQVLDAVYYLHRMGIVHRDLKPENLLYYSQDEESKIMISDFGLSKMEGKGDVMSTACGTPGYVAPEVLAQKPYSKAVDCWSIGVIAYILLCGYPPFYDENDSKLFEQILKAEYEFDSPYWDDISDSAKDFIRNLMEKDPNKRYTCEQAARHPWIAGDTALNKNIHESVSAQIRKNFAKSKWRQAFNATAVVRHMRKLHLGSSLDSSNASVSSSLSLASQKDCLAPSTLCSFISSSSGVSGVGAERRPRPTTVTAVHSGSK
How it was run: as §1

SRC = molecular target: T7, SRC (Homo sapiens, UniProt P12931); settings: read-out: Inhibitory effect (%) SRC
T7 construct: purchased ProQinase (33PanQinase Activity Assay)
T7 sequence (P12931 whole entry): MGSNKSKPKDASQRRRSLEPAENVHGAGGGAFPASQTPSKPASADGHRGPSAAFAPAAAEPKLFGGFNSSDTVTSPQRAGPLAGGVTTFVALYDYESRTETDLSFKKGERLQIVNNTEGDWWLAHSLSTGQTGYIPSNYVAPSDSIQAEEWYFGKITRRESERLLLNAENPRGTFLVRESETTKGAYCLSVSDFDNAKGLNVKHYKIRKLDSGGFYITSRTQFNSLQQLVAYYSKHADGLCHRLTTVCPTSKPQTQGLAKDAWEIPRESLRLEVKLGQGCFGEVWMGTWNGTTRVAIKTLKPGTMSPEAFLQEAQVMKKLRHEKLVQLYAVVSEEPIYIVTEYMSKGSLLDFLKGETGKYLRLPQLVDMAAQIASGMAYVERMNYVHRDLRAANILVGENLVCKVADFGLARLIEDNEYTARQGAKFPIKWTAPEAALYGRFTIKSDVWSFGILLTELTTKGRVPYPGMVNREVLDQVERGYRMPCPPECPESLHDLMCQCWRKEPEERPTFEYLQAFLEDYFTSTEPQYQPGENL
How it was run: as §1

NTRK1 = molecular target: T8, NTRK1 (Homo sapiens, UniProt P04629); settings: read-out: Inhibitory effect (%) NTRK1
T8 construct: purchased ProQinase (33PanQinase Activity Assay)
T8 sequence (P04629 33-796): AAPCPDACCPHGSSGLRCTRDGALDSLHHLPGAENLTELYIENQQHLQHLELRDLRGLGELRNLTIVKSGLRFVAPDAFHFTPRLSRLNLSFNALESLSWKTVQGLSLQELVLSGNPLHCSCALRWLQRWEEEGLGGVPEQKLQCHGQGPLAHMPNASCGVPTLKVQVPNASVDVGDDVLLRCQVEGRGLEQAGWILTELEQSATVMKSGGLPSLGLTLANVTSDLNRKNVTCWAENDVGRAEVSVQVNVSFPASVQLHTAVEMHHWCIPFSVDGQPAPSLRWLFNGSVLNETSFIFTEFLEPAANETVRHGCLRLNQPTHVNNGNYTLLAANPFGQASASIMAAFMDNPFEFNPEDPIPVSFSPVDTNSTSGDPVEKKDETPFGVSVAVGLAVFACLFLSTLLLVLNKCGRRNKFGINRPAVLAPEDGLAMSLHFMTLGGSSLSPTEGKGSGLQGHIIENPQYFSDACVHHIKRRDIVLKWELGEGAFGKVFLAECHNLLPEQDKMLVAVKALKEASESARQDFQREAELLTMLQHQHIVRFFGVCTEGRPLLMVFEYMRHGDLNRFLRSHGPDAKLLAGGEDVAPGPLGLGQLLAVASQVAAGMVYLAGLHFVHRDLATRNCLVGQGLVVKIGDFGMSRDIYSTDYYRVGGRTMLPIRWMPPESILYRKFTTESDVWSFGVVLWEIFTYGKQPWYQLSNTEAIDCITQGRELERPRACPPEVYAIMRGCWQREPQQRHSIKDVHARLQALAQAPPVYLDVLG
How it was run: as §1

RIPK2 = molecular target: T9, RIPK2 (Homo sapiens, UniProt O43353); settings: read-out: Inhibitory effect (%) RIPK2
T9 construct: purchased ProQinase (33PanQinase Activity Assay)
T9 sequence (O43353 whole entry): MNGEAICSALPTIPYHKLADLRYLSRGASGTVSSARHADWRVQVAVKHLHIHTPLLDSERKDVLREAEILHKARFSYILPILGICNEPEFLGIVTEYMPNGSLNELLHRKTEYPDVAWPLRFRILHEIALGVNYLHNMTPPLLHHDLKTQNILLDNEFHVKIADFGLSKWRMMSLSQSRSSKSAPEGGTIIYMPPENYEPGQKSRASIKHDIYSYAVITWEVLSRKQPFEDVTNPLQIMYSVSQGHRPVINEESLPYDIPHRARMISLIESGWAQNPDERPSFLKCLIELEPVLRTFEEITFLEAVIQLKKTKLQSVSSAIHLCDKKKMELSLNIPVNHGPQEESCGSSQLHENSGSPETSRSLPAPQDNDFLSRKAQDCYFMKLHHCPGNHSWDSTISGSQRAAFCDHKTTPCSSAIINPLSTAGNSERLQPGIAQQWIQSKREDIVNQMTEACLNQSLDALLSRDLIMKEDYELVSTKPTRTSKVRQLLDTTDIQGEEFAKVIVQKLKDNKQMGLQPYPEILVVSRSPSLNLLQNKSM
How it was run: as §1

CN1CCC(=O)NCCNc2ccn3ncc(c3n2)-c2cccc(c2)C1 [OD29]
inhibition at 0.1 µM (EPHB4): 3.64%
inhibition at 0.1 µM (CHEK2): -0.87%
inhibition at 0.1 µM (MAPK9): 5.44%
inhibition at 0.1 µM (LIMK1): 1.15%
inhibition at 0.1 µM (IKBKB): -9.1%
inhibition at 0.1 µM (CAMK1D): -7.41%
inhibition at 0.1 µM (SRC): -4.82%
inhibition at 0.1 µM (NTRK1): 69.6%
inhibition at 0.1 µM (RIPK2): 62.5%

CN1CCc2cccc(c2)Nc2nccc(n2)N2CCCc3cc(ccc32)C1 [OD16]
inhibition at 0.1 µM (EPHB4): -36.6%
inhibition at 0.1 µM (CHEK2): 7.12%
inhibition at 0.1 µM (MAPK9): -11%
inhibition at 0.1 µM (LIMK1): 30.3%
inhibition at 0.1 µM (IKBKB): 1.32%
inhibition at 0.1 µM (CAMK1D): -5.9%
inhibition at 0.1 µM (SRC): -19.4%
inhibition at 0.1 µM (NTRK1): -37.9%
inhibition at 0.1 µM (RIPK2): 36.5%

c1ccc2c(-c3cnn4cc(-c5ccc(N6CCNCC6)cc5)cnc34)ccnc2c1 [LDN-193189, reference compound]
inhibition at 0.1 µM (EPHB4): 4.39%
inhibition at 0.1 µM (CHEK2): -0.88%
inhibition at 0.1 µM (MAPK9): -21.3%
inhibition at 0.1 µM (LIMK1): 8.92%
inhibition at 0.1 µM (IKBKB): 1.34%
inhibition at 0.1 µM (CAMK1D): 4.59%
inhibition at 0.1 µM (SRC): 2.89%
inhibition at 0.1 µM (NTRK1): 14.1%
inhibition at 0.1 µM (RIPK2): 91.1%
